Results as given in patent US20190314352A1, “ADMINISTRATION OF DIPEPTIDYL PEPTIDASE INHIBITORS” (Takeda Pharmaceutical Company Limited, priority 2005, published 2019).

Experiments:
[1] = test system: Male db/db (BKS.Cg-+Lepr^db/+Lepr^db) mice; test: Co-administration with pioglitazone: glycosylated hemoglobin levels in mice; assay type: in vivo; conditions: 21 days in powder chow: 0.03% (w/w) benzoate salt of Compound I and/or 0.0075% (w/w) pioglitazone hydrochloride, n=8, mean ± SD
Method: Male db/db (BKS.Cg-+Lepr^db/+Lepr^db) mice (6 weeks of age, CLEA Japan (Tokyo, Japan)) were divided into 4 groups (n=8 in each group) comprising Group A to Group D. Group A had free access to CE-2 powder chow (CLEA Japan) for 21 days. […] Group C had free access to CE-2 powder chow (CLEA Japan) containing 0.0075% (w/w) of pioglitazone hydrochloride for 21 days. The dose of pioglitazone in Group C was calculated to be 15.4±1.5 (mean±SD) mg/kg body weight/day. […] During 21 days of administration of the powder chow, there were not significant differences in the administration amount of the powder chow in the above 4 groups. After 21 days of administration of the powder chow, blood samples were taken from the orbital veins of the mice by capillary pipette under feeding condition, and Glycosylated hemoglobin levels were measured by HPLC-based method using TOSOH automated GHb Analyzer HLC-723 G7 (TOSOH, Japan).
The values in the table means average (n=8)±standard deviation.

[2] = test system: newly diagnosed type II diabetes patients; test: 4-hour postprandial plasma glucose (Cavg) following breakfast, 14-day repeat-dose placebo-controlled study; assay type: in vivo, human; conditions: for mean reduction from baseline in Cavg B / mean reduction in Cavg B calculated as a percent change: fourteen days of treatment; for 4-hour postprandial plasma glucose following breakfast, Day 14 Actual, Mean: 14 days; for 4-hour postprandial plasma glucose, Difference in Change from Baseline from Placebo, LS Mean: Day 14, ANCOVA; for 4-hour postprandial plasma glucose following breakfast, Day 14 Change from Baseline, Mean: baseline Day −1
Text: Data was collected at each study visit.
The primary efficacy analysis was based on change in mean 4-hour prandial glucose concentrations (Cavg) from Day −1 to Day 14. Table A summarizes the primary efficacy endpoint measured following breakfast.

[3] = test system: newly diagnosed type II diabetes patients; test: Fasting fructosamine, 14-day repeat-dose placebo-controlled study; assay type: in vivo, human; conditions: for Fasting Fructosamine, Day 15 Actual, Mean: type II diabetes patients; for Fasting Fructosamine, Difference in Change from Baseline from Placebo, LS Mean: Day 15, ANCOVA; for Fasting Fructosamine, Day 15 Change from Baseline, Mean: baseline Day −7
Method: (§1) Blood samples were collected on Days 6, 16, 17, and 21 for analysis of efficacy based on change in mean 4-hour postprandial plasma glucose (Cavg) from Day −1 to Day 14. Secondary efficacy endpoints included mean 4-hour prandial fructosamine, and glycosylated hemoglobin (HbA1c). Data was collected at each study visit. Inhibition of DPPIV activity was also determined using an assay validated for human plasma samples.

[4] = test system: newly diagnosed type II diabetes patients; test: as above; assay type: in vivo, human; conditions: for Fasting Fructosamine, Difference in Change from Baseline from Placebo, LS Mean: Day 15, ANCOVA
[5] = test system: newly diagnosed type II diabetes patients; test: Glycosylated hemoglobin (HbA1c), 14-day repeat-dose placebo-controlled study; assay type: in vivo, human; conditions: for HbA1c, Difference in Change from Baseline from Placebo, LS Mean: Day 15, ANCOVA; for HbA1c, Day 15 Change from Baseline, Mean: baseline Day −7
Method: as §1

[6] = test system: newly diagnosed type II diabetes patients; test: as above; assay type: in vivo, human; conditions: one time per day at the specified dosage levels, extended treatment; expected

What does the source list for Cn1c(=O)cc(N2CCC[C@@H](N)C2)n(Cc2ccccc2C#N)c1=O [Compound I, 2-[[6-[(3R)-3-amino-1-piperidinyl]-3,4-dihydro-3-methyl-2,4-dioxo-1(2H)-pyrimidinyl]methyl]-benzonitrile]?
Glycosylated Hemoglobin (%) [1]: 5.8 ± 0.5%; mean reduction from baseline in Cavg B ([2]; 25 mg group): 33 mg/dL; mean reduction in Cavg B calculated as a percent change ([2]; 25 mg group): 15%; 4-hour postprandial plasma glucose following breakfast, Day 14 Actual, Mean ([2]; 25 mg/day, type II diabetes patients): 203.2 mg/dL; 4-hour postprandial plasma glucose, Difference in Change from Baseline from Placebo, LS Mean ([2]; 25 mg/day): -39.9 mg/dL; 4-hour postprandial plasma glucose following breakfast, Day 14 Change from Baseline, Mean ([2]; 25 mg/day): -32.5 mg/dL; mean reduction from baseline in Cavg B ([2]; 100 mg group): 37 mg/dL; mean reduction in Cavg B calculated as a percent change ([2]; 100 mg group): 17%; 4-hour postprandial plasma glucose following breakfast, Day 14 Actual, Mean ([2]; 100 mg/day, type II diabetes patients): 173.5 mg/dL; 4-hour postprandial plasma glucose, Difference in Change from Baseline from Placebo, LS Mean ([2]; 100 mg/day): -48.6 mg/dL; 4-hour postprandial plasma glucose following breakfast, Day 14 Change from Baseline, Mean ([2]; 100 mg/day): -37.2 mg/dL; mean reduction from baseline in Cavg B ([2]; 400 mg group): 66 mg/dL; mean reduction in Cavg B calculated as a percent change ([2]; 400 mg group): 24%; 4-hour postprandial plasma glucose following breakfast, Day 14 Actual, Mean ([2]; 400 mg/day, type II diabetes patients): 198.6 mg/dL; 4-hour postprandial plasma glucose, Difference in Change from Baseline from Placebo, LS Mean ([2]; 400 mg/day): -68.3 mg/dL; 4-hour postprandial plasma glucose following breakfast, Day 14 Change from Baseline, Mean ([2]; 400 mg/day): -65.6 mg/dL; 4-hour postprandial plasma glucose following breakfast, Day 14 Actual, Mean ([2]; All Active (25, 100, 400 mg/day combined)): 191.8 mg/dL; 4-hour postprandial plasma glucose, Difference in Change from Baseline from Placebo, LS Mean ([2]; All Active): -52.3 mg/dL; 4-hour postprandial plasma glucose following breakfast, Day 14 Change from Baseline, Mean ([2]; All Active): -44.3 mg/dL; Fasting Fructosamine, Day 15 Actual, Mean ([3]; 25 mg/day for 14 days): 310.7 µmol/L; Fasting Fructosamine, Difference in Change from Baseline from Placebo, LS Mean ([3]; 25 mg/day): -9.6 µmol/L; Fasting Fructosamine, Day 15 Actual, Mean ([3]; 100 mg/day for 14 days): 263.9 µmol/L; Fasting Fructosamine, Day 15 Change from Baseline, Mean ([3]; 100 mg/day): -25.6 µmol/L; Fasting Fructosamine, Day 15 Actual, Mean ([3]; 400 mg/day for 14 days): 312.6 µmol/L; Fasting Fructosamine, Day 15 Change from Baseline, Mean ([3]; 400 mg/day): -19.9 µmol/L; Fasting Fructosamine, Difference in Change from Baseline from Placebo, LS Mean ([3]; All Active): -28.6 µmol/L; Fasting Fructosamine, Day 15 Change from Baseline, Mean ([3]; All Active): -12.9 µmol/L; Fasting Fructosamine, Day 15 Change from Baseline, Mean ([4]; 25 mg/day, baseline Day −7): 6.3 µmol/L; Fasting Fructosamine, Difference in Change from Baseline from Placebo, LS Mean ([4]; 100 mg/day): -42.9 µmol/L; Fasting Fructosamine, Difference in Change from Baseline from Placebo, LS Mean ([4]; 400 mg/day): -33.2 µmol/L; Fasting Fructosamine, Day 15 Actual, Mean ([4]; All Active, 14 days): 295.3 µmol/L; Glycosylated Hemoglobin (HbA1c), Day 15 Actual, Mean ([5]; 25 mg/day for 14 days, type II diabetes patients): 7.76%; HbA1c, Difference in Change from Baseline from Placebo, LS Mean ([5]; 25 mg/day): −0.27%; HbA1c, Day 15 Change from Baseline, Mean ([5]; 25 mg/day): −0.22%; Glycosylated Hemoglobin (HbA1c), Day 15 Actual, Mean ([5]; 100 mg/day for 14 days, type II diabetes patients): 7.25%; HbA1c, Difference in Change from Baseline from Placebo, LS Mean ([5]; 100 mg/day): −0.45%; HbA1c, Day 15 Change from Baseline, Mean ([5]; 100 mg/day): −0.40%; Glycosylated Hemoglobin (HbA1c), Day 15 Actual, Mean ([5]; 400 mg/day for 14 days, type II diabetes patients): 7.82%; HbA1c, Difference in Change from Baseline from Placebo, LS Mean ([5]; 400 mg/day): −0.32%; HbA1c, Day 15 Change from Baseline, Mean ([5]; 400 mg/day): −0.28%; Glycosylated Hemoglobin (HbA1c), Day 15 Actual, Mean ([5]; All Active, 14 days): 7.60%; HbA1c, Difference in Change from Baseline from Placebo, LS Mean ([5]; All Active): −0.35%; HbA1c, Day 15 Change from Baseline, Mean ([5]; All Active): −0.30%; decrease of hemoglobin A1c level compared to placebo control [6]: greater than 0.5%

CCc1ccc(CCOc2ccc(CC3SC(=O)NC3=O)cc2)nc1 (stereo not drawn) [Pioglitazone, 5-{[4-(2-(5-ethyl-2-pyridyl)ethoxy)phenyl]-methyl}-thiazolidine-2,4-dione, reference compound] was tested. Which “Glycosylated Hemoglobin (%)” value [1] did it give?
The value was 5.0 ± 0.7%.
